This note sets out measurements from article PMC6002545, “Deciphering the late steps of rifamycin biosynthesis” (Nature Communications, 2018).

Broadly, the Kd is a measure of binding affinity in units of concentration. Lower therefore signals a tighter complex.

In this test the target is T1, Rif16 (Amycolatopsis mediterranei, UniProt A0A0H3CVZ6).
T1 construct: gene AMED_0653; N-terminally His6-tagged Rif16 (rif16 from A. mediterranei S699)
As to the kind of experiment: Type I spectral substrate binding titration; co-crystal structure at […] Å.

T1 sequence (A0A0H3CVZ6 entry or part of it): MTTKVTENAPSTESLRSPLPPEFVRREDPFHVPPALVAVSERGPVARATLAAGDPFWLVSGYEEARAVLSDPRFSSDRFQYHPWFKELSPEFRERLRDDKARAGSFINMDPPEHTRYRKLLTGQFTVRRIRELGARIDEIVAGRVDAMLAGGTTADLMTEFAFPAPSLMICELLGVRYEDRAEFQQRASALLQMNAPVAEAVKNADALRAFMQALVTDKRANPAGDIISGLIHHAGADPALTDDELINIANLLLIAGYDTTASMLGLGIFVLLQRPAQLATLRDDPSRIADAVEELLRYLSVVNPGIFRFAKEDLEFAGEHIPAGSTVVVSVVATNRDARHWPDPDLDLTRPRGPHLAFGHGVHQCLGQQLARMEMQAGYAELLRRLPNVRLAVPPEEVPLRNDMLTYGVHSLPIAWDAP

For `CO[C@H]1/C=C/O[C@@]2(C)Oc3c(C)c(O)c4c(O)c(cc(OC(=O)CO)c4c3C2=O)NC(=O)/C(C)=C/C=C/[C@H](C)[C@H](O)[C@@H](C)[C@@H](O)[C@@H](C)[C@H](OC(C)=O)[C@@H]1C` [R-L, rifamycin L], the Kd amounted to 1300 ± 100 nM.
